Laboratory results from PubChem BioAssay AID1963441 (Molecular Pharmacology Branch, DTP, NCI, 2024).

Tested on: NCI-H1876 complex spheroid growth, % test/control
Assay: Anticancer human tumor NCI-H1876 cell line growth inhibition [Asc];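 note: compound exposure lasted 7 days starting three days after seeding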;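 for viability, T/C: 100% = DMSO vehicle control wells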
Conditions: for IC50: curve of first compound; for viability, T/C: stronger effect = lower value
Summary of the method: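 Tumor cells were grown as multicellular spheroids with stromal HUVEC and mesenchymal stem cells and treated singly or in combination. Concentrations fell in half-log steps from the clinical Cmax, or from 10 microM where none was known.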

For Cc1nc(N2CCC3(CC2)COC(C)C3N)c(CO)nc1Sc1ccnc(N)c1Cl (configuration not stated) + Cc1c(S(C)(=O)=O)c(-c2cc(F)cc(N3CCN(c4ccc(NS(=O)(=O)c5ccc(NC(CCN6CCC(C(=O)OCCCP(=O)(O)O)CC6)CSc6ccccc6)c(S(=O)(=O)C(F)(F)F)c5)cc4)CC3)c2)c(-c2ccc(Cl)cc2)n1C(C)C, the IC50 (second compound 0.0316 µM) was over 3 µM, the IC50 (second compound 0.1 µM) was over 3 µM and the IC50 (second compound 0.316 µM) was over 3 µM. It also gave an IC50 (second compound 1 µM) of over 3 µM, an IC50 (second compound 3.16 µM) of over 3 µM and an IC50 (second compound 10 µM) of over 3 µM. The viability, T/C (second compound 0.0316 µM, first compound 0.00949 µM) was 106%, the viability, T/C (second compound 0.0316 µM, first compound 0.03 µM) was 86.8% and the viability, T/C (second compound 0.0316 µM, first compound 0.0949 µM) was 90.2%. For the same compound, the viability, T/C (second compound 0.0316 µM, first compound 0.3 µM) was 78.7%, the viability, T/C (second compound 0.0316 µM, first compound 0.949 µM) was 83.2% and the viability, T/C (second compound 0.0316 µM, first compound 3 µM) was 79.4%. The viability, T/C (second compound 0.1 µM, first compound 0.00949 µM) was 95.7%, the viability, T/C (second compound 0.1 µM, first compound 0.03 µM) was 101% and the viability, T/C (second compound 0.1 µM, first compound 0.0949 µM) was 93.7%. The viability, T/C (second compound 0.1 µM, first compound 0.3 µM) was 88%, the viability, T/C (second compound 0.1 µM, first compound 0.949 µM) was 84.2% and the viability, T/C (second compound 0.1 µM, first compound 3 µM) was 82.6%. For the same compound, the viability, T/C (second compound 0.316 µM, first compound 0.00949 µM) was 81.8%, the viability, T/C (second compound 0.316 µM, first compound 0.03 µM) was 89.7% and the viability, T/C (second compound 0.316 µM, first compound 0.0949 µM) was 92.2%. It also gave a viability, T/C (second compound 0.316 µM, first compound 0.3 µM) of 75.7%, a viability, T/C (second compound 0.316 µM, first compound 0.949 µM) of 88.4% and a viability, T/C (second compound 0.316 µM, first compound 3 µM) of 81.6%. For the same compound, the viability, T/C (second compound 1 µM, first compound 0.00949 µM) was 94.2%, the viability, T/C (second compound 1 µM, first compound 0.03 µM) was 92% and the viability, T/C (second compound 1 µM, first compound 0.0949 µM) was 81.5%. For the same compound, the viability, T/C (second compound 1 µM, first compound 0.3 µM) was 83.8%, the viability, T/C (second compound 1 µM, first compound 0.949 µM) was 93.7% and the viability, T/C (second compound 1 µM, first compound 3 µM) was 74.2%. The viability, T/C (second compound 3.16 µM, first compound 0.00949 µM) was 90.1%, the viability, T/C (second compound 3.16 µM, first compound 0.03 µM) was 88.7% and the viability, T/C (second compound 3.16 µM, first compound 0.0949 µM) was 83.7%. The viability, T/C (second compound 3.16 µM, first compound 0.3 µM) was 84.9%, the viability, T/C (second compound 3.16 µM, first compound 0.949 µM) was 83.3% and the viability, T/C (second compound 3.16 µM, first compound 3 µM) was 80.7%. The viability, T/C (second compound 10 µM, first compound 0.00949 µM) was 103%, the viability, T/C (second compound 10 µM, first compound 0.03 µM) was 88.8% and the viability, T/C (second compound 10 µM, first compound 0.0949 µM) was 85.3%. It also gave a viability, T/C (second compound 10 µM, first compound 0.3 µM) of 92.4%, a viability, T/C (second compound 10 µM, first compound 0.949 µM) of 96.7% and a viability, T/C (second compound 10 µM, first compound 3 µM) of 70.3%.
